The text below walks through data of PubChem BioAssay (NCI).

Holding throughout (test): growth of human tumour cells (NCI), 48 h
The subject of test [1] is BT-549 breast.
For test [2], the system named is HCT-15 colon.
In test [3] the test system is HS 578T breast.
In test [4] the test system is MDA-MB-435.
Test [5] has as its system OVCAR-5 ovarian.
Test [6] has as its system RXF 393 renal.
In test [7] the test system is SF-268 CNS.
Test [8] has as its system SK-MEL-2 melanoma.

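Dose response: 5 concentrations. Exposure: 48 h. Format: 96-well plates. Endpoint: linear interpolation; highest concentration if not reached. TGI denotes the concentration required for complete inhibition of growth.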

Consider `CC(=O)c1c2c(c3ccccc3c1O)O[C@@H]1OCC[C@H]21`, for which the TGI in test [1], in test [2], in test [3], in test [4], in test [5] and in test [6] was over 100 µM in each case. Besides, the TGI in test [7] and in test [8] was over 100 µM in each case.

In the case of `CCCCCC1=CC(=O)C1(Cl)Cl`, the TGI in test [1] is 56.8 µM; in test [2] it was 32.4 µM; in test [3], over 81.3 µM; in test [4] it was 33 µM; in test [5] it was 29.5 µM; in test [6], 35.3 µM. Further, the TGI in test [7] was 55.5 µM; in test [8], 47.7 µM.

Turning to `CC1CN(C)c2ccccc2N=C1NN` (stereo unspecified), the TGI in test [1] is over 100 µM; in test [2], over 100 µM; in test [3] it was over 100 µM; in test [4], over 100 µM; in test [5], over 100 µM; in test [6], 78.6 µM. Moreover, the TGI in test [7] and in test [8] was over 100 µM throughout.

With `C=CC1(CC/C(=C\[N+](=O)[O-])c2ccc(OC)c(OC)c2)OCC(C)(C)CO1`, the TGI turned out to be 31.1 µM in test [1]; 38.6 µM in test [2]; 79.4 µM in test [3]; 56.3 µM in test [4]; 35.2 µM in test [5]; 36.3 µM in test [6]. Besides, the TGI in test [7] was 39.1 µM; in test [8], 37.7 µM.

Consider `N#CC(NCc1cccc(CNC(C#N)c2ccccc2)c1)c1ccccc1` (stereo unspecified), for which the TGI in test [1] was 87 µM; in test [2] it was 66.1 µM; in test [3], over 100 µM; in test [4], over 100 µM; in test [5] it was over 100 µM; in test [6], over 100 µM. Moreover, the TGI in test [7] and in test [8] was over 100 µM in each case.

As to `COc1ccc(N=NC(=Nc2ccccc2)c2ccc(N(CCC#N)CCC#N)cc2)cc1`, the TGI in test [1], in test [2], in test [3], in test [4], in test [5] and in test [6] was over 100 µM each time. Also, the TGI in test [7] and in test [8] was over 100 µM each time.

Consider `Cc1cc(C)nc(NS(=O)(=O)c2ccc(NC(=O)c3ccc4nc5ccccc5c(Nc5ccc(S(N)(=O)=O)cc5)c4c3)cc2)n1`, for which the TGI in test [1], in test [2], in test [3], in test [4], in test [5] and in test [6] was over 100 µM throughout. For the same compound, the TGI in test [7] and in test [8] was over 100 µM in each case.

Turning to `C[C@]12CCC3C4=C(CCC3C1CCC2=O)C(=O)[C@H]1O[C@H]1C4=O` (stereo partly specified), the TGI was 4.83 µM in test [1]; 2.8 µM in test [2]; over 30.5 µM in test [3]; 24.9 µM in test [4]; 10.4 µM in test [5]; 3.18 µM in test [6]. Also, the TGI is 5.32 µM in test [7] and 26.5 µM in test [8].

As to `O=C(N/N=C/c1ccc(Cl)cc1)c1c(Cl)c(Cl)c(Cl)c(Cl)c1-c1nc2ccccc2[nH]1`, the TGI in test [1], in test [2], in test [3], in test [4], in test [5] and in test [6] was over 100 µM throughout. The TGI in test [7] and in test [8] was over 100 µM each time.

On to `O=C(/C=C/c1ccc2c(c1)OCO2)c1ccc(O)cc1`, for which the TGI in test [1] stood at 27.4 µM; in test [2] it was 27.5 µM; in test [3] it was 34.1 µM; in test [4] it was 34.1 µM; in test [5] it was 35.1 µM; in test [6] it was 29.6 µM. In addition, the figures for the TGI in test [7] and in test [8] were over 100 µM and 32.7 µM, respectively.

In the case of `CCCCOC(=O)Nc1ccc(S(=O)(=O)Nc2ccccc2Cl)cc1`, the TGI in test [1] came to 39.2 µM; in test [2] it was 44.9 µM; in test [3] it was 53.8 µM; in test [4] it was 36 µM; in test [5], 55.4 µM; in test [6], 55.9 µM. Also, the TGI in test [7] amounted to 36.5 µM; in test [8], 38.8 µM.

Regarding `O=C1CCCCC1CN1CCCCC1` (stereo unspecified), the TGI in test [1], in test [2], in test [3], in test [4], in test [5] and in test [6] was over 100 µM in each case. Further, the TGI in test [7] and in test [8] was over 100 µM throughout.

As to `Cc1ccccc1C(=N)c1ccccc1Cc1cccc2ccccc12`, the TGI in test [1] was 92 µM; in test [2], 56.1 µM; in test [3] it was 26.3 µM; in test [4], 52.9 µM; in test [5], over 100 µM; in test [6], 20.3 µM. The TGI in test [7] came out at 68.2 µM; in test [8], 35.1 µM.

For `O=C(/C=C/c1ccc2c(c1)OCO2)Cc1nc2ncccc2[nH]c1=O`, the TGI in test [1], in test [2], in test [3], in test [4], in test [5] and in test [6] was over 100 µM throughout. Besides, the TGI in test [7] and in test [8] was over 100 µM each time.

As for `O=C(NCc1ccccc1)c1n[nH][nH]c1=O`, the TGI in test [1], in test [2], in test [3], in test [4], in test [5] and in test [6] was over 100 µM throughout. Besides, the TGI in test [7] and in test [8] was over 100 µM throughout.

On to `CCOC(=O)N1CCN(Cc2cc(=O)n3ccc(C)cc3n2)CC1`, for which the TGI in test [1], in test [2], in test [3], in test [4], in test [5] and in test [6] was over 100 µM in each case. For the same compound, the TGI in test [7] and in test [8] was over 100 µM each time.

As to `CC(=O)N(C(=O)CC(=O)N1N=C(c2ccccc2)C(N=Nc2ccccc2[N+](=O)[O-])C1=O)c1ccc(Cl)cc1` (stereo unspecified), the TGI in test [1], in test [2], in test [3], in test [4], in test [5] and in test [6] was over 10 µM in each case. For the same compound, the TGI in test [7] and in test [8] was over 10 µM each time.
